Test results as given in ChEMBL document CHEMBL4610123, “Structure-Based Drug Discovery of N-((R)-3-(7-Methyl-1H-indazol-5-yl)-1-oxo-1-(((S)-1-oxo-3-(piperidin-4-yl)-1-(4-(pyridin-4-yl)piperazin-1-yl)propan-2-yl)amino)propan-2-yl)-2'-oxo-1',2'-dihydrospiro[piperidine-4,4'-pyrido[2,3-d][1,3]oxazine]-1-carboxamide (HTL22562): A Calcitonin Gene-Related …” (J Med Chem, 2020).

Tests used:
[1] = Half life in cynomolgus monkey at 0.5 mg/kg, iv; format: ADME, organism-based, Macaca fascicularis; settings: in vivo
[2] = biological target: T1, AHR (aryl hydrocarbon receptor) (Homo sapiens, UniProt P35869); assay: Transactivation of AHR (unknown origin) assessed as induction of CYP450 at 3 uM relative to control; format: ADME; settings: read-out: FC
T1 sequence (P35869 whole entry): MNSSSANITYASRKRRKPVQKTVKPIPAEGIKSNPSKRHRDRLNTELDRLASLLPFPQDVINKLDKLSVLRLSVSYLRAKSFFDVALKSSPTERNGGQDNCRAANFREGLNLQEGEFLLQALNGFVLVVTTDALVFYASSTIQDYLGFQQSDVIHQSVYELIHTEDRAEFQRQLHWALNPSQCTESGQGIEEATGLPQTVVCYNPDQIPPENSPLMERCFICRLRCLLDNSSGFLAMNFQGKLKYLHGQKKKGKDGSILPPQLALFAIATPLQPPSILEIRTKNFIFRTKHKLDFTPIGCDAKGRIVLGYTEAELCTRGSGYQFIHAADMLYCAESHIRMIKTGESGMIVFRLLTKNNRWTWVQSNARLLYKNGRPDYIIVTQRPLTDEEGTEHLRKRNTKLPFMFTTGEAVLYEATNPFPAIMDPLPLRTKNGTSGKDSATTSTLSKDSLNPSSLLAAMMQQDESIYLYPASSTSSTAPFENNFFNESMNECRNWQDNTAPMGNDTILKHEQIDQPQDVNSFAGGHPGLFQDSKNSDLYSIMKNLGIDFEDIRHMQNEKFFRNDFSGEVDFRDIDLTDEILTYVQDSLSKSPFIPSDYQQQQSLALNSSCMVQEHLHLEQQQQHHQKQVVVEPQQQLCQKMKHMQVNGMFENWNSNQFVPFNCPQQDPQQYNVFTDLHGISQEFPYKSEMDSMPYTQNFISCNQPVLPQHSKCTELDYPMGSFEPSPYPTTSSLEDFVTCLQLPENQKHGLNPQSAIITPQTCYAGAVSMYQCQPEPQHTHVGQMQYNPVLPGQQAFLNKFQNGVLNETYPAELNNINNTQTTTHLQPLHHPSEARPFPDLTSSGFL

Cc1cc(C[C@@H](NC(=O)N2CCC3(CC2)OC(=O)Nc2ncccc23)C(=O)N[C@@H](CC2CCNCC2)C(=O)N2CCN(c3ccncc3)CC2)cc2cn[nH]c12 [HTL-0022562]
half-life [1]: 5.3 h
fold induction at 3 µM [2]: 1.4
